Results on five compounds are retold here after patent US20090093493A1, “1-PHENYLALCOXY-2-BETA-PHENYLETHYL DERIVATIVES AS P-GLYCOPROTEIN (P-GP) INHIBITORS USEFUL IN DRUG RESISTANCE EVENTS” (priority 2007, published 2009).

Read-outs that look alike come from different tables or passages of the source.

Data set [1] concerns the target T1, P-glycoprotein (Homo sapiens, UniProt P08183). Nature of the data set: Doxorubicin accumulation in MCF7/Adr cells after pretreatment with compound (flow cytometry). Particulars: for endocellular accumulation: above-described assays. A general note: Flow cytometry measures light scatter and fluorescence of single cells or particles in a stream.
Description: (§1) Another assay is performed on MCF-7/ADr cells. These cells, resistant to the chemotherapy agent doxorubicin, are exposed for some hours to the compound under examination and subsequently treated with doxorubicin. The amount of doxorubicin entering the cell following treatment with the compounds under examination is then measured.
(§2) At the end of the incubation, the incubation medium containing the compound under examination was removed, and fresh medium containing 50 μM doxorubicin was added for 24 h. The negative control consisted of plates containing an alike number of cells untreated with the compound. At the end of the 24 h, the medium was removed and the cells split and prepared according to standard procedure for flow cytometry analysis.
The target of data set [2] is T1, P-glycoprotein.
Description: as §1, §2
The target of data set [3] is T2, P-gp (Homo sapiens, UniProt P08183). Nature of the data set: Classification of compounds interfering with P-gp activity (method of Polli et al. / Taub et al.). The class given is cell-based. On the set-up: apparent permeability determined in Caco-2 cells; endogenous in cells; host or cells: Caco-2. Particulars: above-described assays.
Excerpt: The biological assays performed verify a) transport for each for each candidate compound by P-gp (apparent permeability determined in Caco-2 cells); b) ATP-ase activation in Caco-2 cells; c) inhibition of [^3H] Vinblastine basolateral-apical transport (in Caco-2 cells) and of rhodamine (in guinea pig ileum).
Data set [4] addresses T2, P-gp. The conditions noted are these: reported in literature; cited from earlier work.
Setting [5] is: MCF7/Adr, 20 μM compound for 120 min, then 50 μM doxorubicin for 24 h.

T1 sequence (P08183 whole entry): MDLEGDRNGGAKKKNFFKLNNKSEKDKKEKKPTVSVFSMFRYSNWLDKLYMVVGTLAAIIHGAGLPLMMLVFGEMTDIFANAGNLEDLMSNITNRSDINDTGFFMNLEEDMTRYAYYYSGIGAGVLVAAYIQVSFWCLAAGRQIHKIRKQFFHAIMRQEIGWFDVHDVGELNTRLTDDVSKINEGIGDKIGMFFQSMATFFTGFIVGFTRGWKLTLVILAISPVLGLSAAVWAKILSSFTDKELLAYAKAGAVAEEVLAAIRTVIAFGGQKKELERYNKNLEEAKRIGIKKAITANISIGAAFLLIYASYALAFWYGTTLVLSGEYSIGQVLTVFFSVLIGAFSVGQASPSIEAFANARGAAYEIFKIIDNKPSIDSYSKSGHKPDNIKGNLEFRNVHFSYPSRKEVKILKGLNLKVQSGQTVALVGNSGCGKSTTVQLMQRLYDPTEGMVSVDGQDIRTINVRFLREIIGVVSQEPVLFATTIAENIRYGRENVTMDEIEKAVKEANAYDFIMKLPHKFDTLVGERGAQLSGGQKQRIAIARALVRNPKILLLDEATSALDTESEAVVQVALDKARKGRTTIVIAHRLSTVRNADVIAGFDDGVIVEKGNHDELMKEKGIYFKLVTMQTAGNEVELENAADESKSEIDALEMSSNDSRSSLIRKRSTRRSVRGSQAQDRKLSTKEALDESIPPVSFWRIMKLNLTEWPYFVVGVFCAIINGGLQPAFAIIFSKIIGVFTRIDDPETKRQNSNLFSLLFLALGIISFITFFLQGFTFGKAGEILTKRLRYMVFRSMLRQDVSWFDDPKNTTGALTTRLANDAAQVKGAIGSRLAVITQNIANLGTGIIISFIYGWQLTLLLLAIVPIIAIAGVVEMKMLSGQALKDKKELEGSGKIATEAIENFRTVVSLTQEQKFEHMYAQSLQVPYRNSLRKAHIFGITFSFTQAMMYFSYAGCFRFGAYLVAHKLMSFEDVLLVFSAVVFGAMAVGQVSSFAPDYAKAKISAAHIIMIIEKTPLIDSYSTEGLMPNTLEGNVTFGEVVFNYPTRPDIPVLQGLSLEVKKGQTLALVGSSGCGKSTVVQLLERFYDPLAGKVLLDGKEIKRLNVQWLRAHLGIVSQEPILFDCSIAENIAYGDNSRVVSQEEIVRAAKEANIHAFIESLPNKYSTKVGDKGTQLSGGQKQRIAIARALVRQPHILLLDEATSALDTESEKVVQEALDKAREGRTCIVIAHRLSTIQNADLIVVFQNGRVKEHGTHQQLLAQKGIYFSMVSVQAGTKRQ
T2 sequence (P08183 whole entry): as above

`COc1cccc(CCc2ccccc2OCc2ccccn2)c1` [EB12, 2({2-[2-(3-methoxyphenyl)ethyl]phenoxy}methyl]pyridine]: on P-glycoprotein [1] (setting [5]), the “effectiveness in P-glycoprotein inhibition relative to Verapamil and EB27” value was found to be 5 fold; the “inletting of doxorubicin in the cells” value is “increase”. Also, the endocellular accumulation entry at P-glycoprotein [1] was “very high”.
In the case of `COc1cccc(CCc2ccccc2OCCCN2CCN(c3ncccn3)CC2)c1` [EB25, 3-{2-[2-(3-methoxyphenyl)ethyl]phenoxy}propan-1-[4-(2-pyrimidyl)piperazine]], at P-glycoprotein [2], the endocellular accumulation result is on record as “very high”.
Regarding `COc1cccc(CCc2ccccc2OCc2cccc(OC)c2)c1` [EB27, 1-[(3-methoxybenzyl)oxy]-2-[2-(3-methoxyphenyl)ethyl]benzene], the “inletting of doxorubicin in the cells” value at P-glycoprotein [1] (setting [5]) is recorded as “increase”. Further, the endocellular accumulation entry on P-glycoprotein [1] was “very high”.
Consider `c1ccc(CCc2ccccc2OCc2ccccc2)cc1` [EB 30, 1-(benzyloxy)-2-(2-phenylethyl)benzene], for which the “Category of interference with P-gp activity” value on P-gp [3] is listed as “IIB”.
Take `COc1cc2c(cc1OC)CN(CCc1ccc(NC(=O)c3cccc4c(=O)c5cccc(OC)c5[nH]c34)cc1)CC2` [GF120918]: on P-gp [4], the “classification as pure inhibitor of P-gp” value is reported as “sole pure inhibitor of P-gp”.
